Key:
[1] = Metabolic stability in human liver microsomes assessed as half life measured after 60 mins by LC-MS/MS analysis; assay type: ADME, Microsome
[2] = Metabolic stability in human liver microsomes assessed as intrinsic clearance measured after 60 mins by LC-MS/MS analysis; assay type: ADME, Microsome; details: read-out: CLH
[3] = molecular target: 5-hydroxytryptamine receptor 2A (Homo sapiens, UniProt P28223); test: Displacement of [3H]-ketanserin from human 5-HT2A receptor incubated for 90 mins by scintillation counting analysis
Sequence of 5-hydroxytryptamine receptor 2A (P28223 whole entry): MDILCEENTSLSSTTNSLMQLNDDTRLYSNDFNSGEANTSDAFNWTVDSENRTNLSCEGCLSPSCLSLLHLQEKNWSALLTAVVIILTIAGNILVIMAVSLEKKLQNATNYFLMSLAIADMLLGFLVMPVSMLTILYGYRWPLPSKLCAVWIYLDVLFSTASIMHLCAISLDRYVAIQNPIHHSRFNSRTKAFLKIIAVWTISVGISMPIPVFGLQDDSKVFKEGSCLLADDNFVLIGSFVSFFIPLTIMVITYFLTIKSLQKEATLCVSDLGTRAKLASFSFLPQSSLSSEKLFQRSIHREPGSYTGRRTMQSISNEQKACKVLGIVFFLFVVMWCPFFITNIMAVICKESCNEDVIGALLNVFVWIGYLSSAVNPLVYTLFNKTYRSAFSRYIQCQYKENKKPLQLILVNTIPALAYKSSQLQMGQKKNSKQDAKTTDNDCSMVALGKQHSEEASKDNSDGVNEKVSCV

## [2H]C([2H])([2H])N(C([2H])([2H])[2H])C([2H])([2H])C([2H])([2H])c1c[nH]c2cccc(OC(=O)CCCCCCCC/C=C\C/C=C\CCCCC)c12
[1]
  half-life at 2 µM: 2.23 h
[2]
  microsomal CLint: 10.4 µL/min/mg
[3]
  EC50: 0.965 µM
